Where “and” joins values, the source holds several entries; their conditions need not be identical. Equal entries are not always repeated. Inconclusive results and toxic doses are left out. The calls were made as follows: active = survival T/C of 150% or more; inactive = T/C below 125% in these data.
Test system: P388 leukemia ip, CD2F1 mice, survival T/C
Assay: NCI In Vivo Anticancer Drug Screen. Data for tumor model P388 Leukemia (intraperitoneal) in CD2F1 (CDF1) mice
Conditions: endpoint: median survival time, higher = longer survival
Summary of the method: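 Mice carrying the transplanted tumor received test compound or vehicle. Survival was recorded in each group, and the value is the treated-group measurement divided by that of the vehicle-treated control group.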

[1] = dose: 100.0 mg/kg/injection, schedule: Q04DX003 (ip), vehicle: saline
[2] = dose: 200.0 mg/kg/injection, schedule: Q04DX003 (ip), vehicle: saline
[3] = dose: 400.0 mg/kg/injection, schedule: Q04DX003 (ip), vehicle: saline
[4] = dose: 6.25 mg/kg/injection, schedule: Q01DX009 (ip), vehicle: saline with Tween-80
[5] = dose: 12.5 mg/kg/injection, schedule: Q01DX009 (ip), vehicle: saline with Tween-80
[6] = dose: 50.0 mg/kg/injection, schedule: Q01DX005 (ip), vehicle: Klucel (hydroxypropylcellulose) (HPC)
[7] = dose: 50.0 mg/kg/injection, schedule: Q01DX009 (ip), vehicle: saline with Tween-80
[8] = dose: 100.0 mg/kg/injection, schedule: Q01DX005 (ip), vehicle: Klucel (hydroxypropylcellulose) (HPC)
[9] = dose: 100.0 mg/kg/injection, schedule: Q01DX009 (ip), vehicle: saline with Tween-80
[10] = dose: 200.0 mg/kg/injection, schedule: Q01DX005 (ip), vehicle: Klucel (hydroxypropylcellulose) (HPC)
[11] = dose: 50.0 mg/kg/injection, schedule: Q01DX005 (ip), vehicle: saline with Tween-80
[12] = dose: 100.0 mg/kg/injection, schedule: Q01DX005 (ip), vehicle: saline with Tween-80
[13] = dose: 50.0 mg/kg/injection, schedule: Q01DX009 (ip), vehicle: Klucel (hydroxypropylcellulose) (HPC)
[14] = dose: 100.0 mg/kg/injection, schedule: Q01DX009 (ip), vehicle: Klucel (hydroxypropylcellulose) (HPC)
[15] = dose: 200.0 mg/kg/injection, schedule: Q01DX009 (ip), vehicle: Klucel (hydroxypropylcellulose) (HPC)
[16] = dose: 3.12 mg/kg/injection, schedule: Q01DX009 (ip), vehicle: saline with Tween-80
[17] = dose: 25.0 mg/kg/injection, schedule: Q01DX005 (ip), vehicle: Klucel (hydroxypropylcellulose) (HPC)

Measured: T/C

C=C1CC[C@H]2C(C)=CC[C@@H]3[C@H](OC(=O)[C@H]3CN3CCN(c4ccc(C)c([N+](=O)[O-])c4)CC3)[C@@H]12
inactive: dose: 100.0 mg/kg/injection, schedule: Q04DX002 (ip), vehicle: saline 97 % of control | dose: 200.0 mg/kg/injection, schedule: Q04DX002 (ip), vehicle: saline 99 % of control | dose: 400.0 mg/kg/injection, schedule: Q04DX002 (ip), vehicle: saline 96 % of control

Oc1ccccc1-c1cc(-c2ccccc2)nc(NCCCCCCCCNc2nc(-c3ccccc3)cc(-c3ccccc3O)n2)n1
inactive: [1] 92 % of control | [2] 94 % of control | [3] 88 % of control

CC1CCN(C)CC1
inactive: dose: 25.0 mg/kg/injection, schedule: Q01DX005 (ip), vehicle: saline 104 % of control | dose: 50.0 mg/kg/injection, schedule: Q01DX005 (ip), vehicle: saline 97 % of control | dose: 100.0 mg/kg/injection, schedule: Q01DX005 (ip), vehicle: saline 105 % of control

OC(c1cc2cc(Cl)c(Cl)cc2c2cc(C(F)(F)F)ccc12)C1CCCCN1 (stereo not drawn)
inactive: [4] 109 % of control | [5] 102 % of control

O=C(O)CCC(=O)c1ccc2ccc3cccc4ccc1c2c34
inactive: [6] 102 % of control | [7] 101 % of control | [8] 103 % of control | [9] 115 % of control | [10] 99 % of control

CCCCN(CCCC)CCCNc1nccc2ccccc12
inactive: dose: 6.25 mg/kg/injection, schedule: Q01DX005 (ip), vehicle: saline with Tween-80 106 % of control | dose: 12.5 mg/kg/injection, schedule: Q01DX005 (ip), vehicle: saline with Tween-80 103 % of control | dose: 25.0 mg/kg/injection, schedule: Q01DX005 (ip), vehicle: saline with Tween-80 106 % of control

NP1(N)=NP(N)(N)=NP(N)(N)=NP(N)(N)=N1
inactive: [6] 96 % of control | [8] 96 % of control | [10] 99 % of control

On1cc/c(=N\N=C\c2ccc(N(CCCl)CCCl)cc2)c2ccccc21
inactive: dose: 100.0 mg/kg/injection, schedule: Q04DX003 (ip), vehicle: saline + Tween-80 + alcohol 99 % of control | dose: 200.0 mg/kg/injection, schedule: Q04DX003 (ip), vehicle: saline + Tween-80 + alcohol 106 % of control | dose: 400.0 mg/kg/injection, schedule: Q04DX003 (ip), vehicle: saline + Tween-80 + alcohol 102 % of control

CC(C)=CCC/C(C)=C\C1OC(C)C(C)O1 (stereo not drawn)
inactive: [11] 104 % of control | [12] 100 % of control | dose: 200.0 mg/kg/injection, schedule: Q01DX005 (ip), vehicle: saline with Tween-80 107 % of control

CN(NC(=O)CC(=O)NN(C)C(=S)c1ccccc1)C(=S)c1ccccc1
inactive: dose: 12.5 mg/kg/injection, schedule: Q01DX009 (ip), vehicle: gum acacia 97 % of control | dose: 25.0 mg/kg/injection, schedule: Q01DX009 (ip), vehicle: gum acacia 115 % of control | dose: 50.0 mg/kg/injection, schedule: Q01DX009 (ip), vehicle: gum acacia 104 % of control

COc1ccc2ccc3c(c2c1)C(=O)C(CC(N)=O)C3 (stereo not drawn)
inactive: dose: 12.5 mg/kg/injection, schedule: Q01DX009 (ip), vehicle: distilled water + Tween-80 97 % of control | dose: 25.0 mg/kg/injection, schedule: Q01DX009 (ip), vehicle: distilled water + Tween-80 93 % of control | dose: 50.0 mg/kg/injection, schedule: Q01DX009 (ip), vehicle: distilled water + Tween-80 92 % of control | dose: 200.0 mg/kg/injection, schedule: Q01DX009 (ip), vehicle: distilled water + Tween-80 93 % of control

CCOC(=O)[C@]1(Br)CC[C@]1(Br)C(=O)OCC
inactive: [7] 106 % of control and 121 % of control | [9] 112 % of control and 114 % of control | dose: 200.0 mg/kg/injection, schedule: Q01DX009 (ip), vehicle: saline with Tween-80 117 % of control and 122 % of control | dose: 400.0 mg/kg/injection, schedule: Q01DX009 (ip), vehicle: saline with Tween-80 123 % of control

CCOC(=O)C1=C(C(=O)c2ccc(OC)cc2)C(c2ccc(Cl)cc2Cl)C(C(=O)c2ccc(OC)cc2)=C(C(=O)OCC)N1
inactive: dose: 30.0 mg/kg/injection, schedule: Q01DX005 (ip), vehicle: saline with Tween-80 96 % of control | dose: 60.0 mg/kg/injection, schedule: Q01DX005 (ip), vehicle: saline with Tween-80 91 % of control and 94 % of control | dose: 120.0 mg/kg/injection, schedule: Q01DX005 (ip), vehicle: saline with Tween-80 101 % of control | dose: 240.0 mg/kg/injection, schedule: Q01DX005 (ip), vehicle: saline with Tween-80 92 % of control

COC(=O)c1ccc(SCCC2(COS(C)(=O)=O)OCCO2)cc1
inactive: [13] 106 % of control | [14] 102 % of control | [15] 96 % of control

O=c1oc(-c2ccccc2Br)ns1
inactive: [14] 107 % of control | [15] 97 % of control

COc1ccccc1C(O)(c1ccccc1OC)C1(O)CCN(C)CC1
inactive: [6] 94 % of control | [8] 95 % of control

C=CC(=NC(C)(C)C)Nc1ccccc1C#N
inactive: [16] 106 % of control | [4] 106 % of control | [5] 100 % of control and 117 % of control

CCOC(=O)c1c2c(n(-c3ccccc3)c1C)C(=O)c1ccccc1C2=O
inactive: dose: 50.0 mg/kg/injection, schedule: Q01DX009 (ip), vehicle: saline 99 % of control | dose: 100.0 mg/kg/injection, schedule: Q01DX009 (ip), vehicle: saline 92 % of control | dose: 200.0 mg/kg/injection, schedule: Q01DX009 (ip), vehicle: saline 98 % of control

COC(=O)NC1=CCC(C(C)(C)C)CC1 (stereo not drawn)
inactive: [17] 108 % of control | [6] 113 % of control | [8] 106 % of control | [10] 103 % of control

CN(C)c1cccc(NC(=O)CC#N)c1
inactive: [11] 93 % of control | [12] 93 % of control

COc1ccc(N=Cc2cc3c(cc2Br)OCO3)cc1
inactive: dose: 25.0 mg/kg/injection, schedule: Q01DX009 (ip), vehicle: other 97 % of control | dose: 50.0 mg/kg/injection, schedule: Q01DX009 (ip), vehicle: other 96 % of control | dose: 100.0 mg/kg/injection, schedule: Q01DX009 (ip), vehicle: other 94 % of control | dose: 200.0 mg/kg/injection, schedule: Q01DX009 (ip), vehicle: other 100 % of control | dose: 400.0 mg/kg/injection, schedule: Q01DX009 (ip), vehicle: other 100 % of control

C(=C\CN1CCOCC1)/Cc1cccnc1
inactive: [16] 99 % of control and 100 % of control | [4] 100 % of control | [5] 100 % of control and 104 % of control | dose: 25.0 mg/kg/injection, schedule: Q01DX009 (ip), vehicle: saline with Tween-80 100 % of control (2×) and 102 % of control | [7] 103 % of control and 109 % of control

O=C(NNc1nc(CCl)cs1)c1ccccc1Cl
inactive: dose: 12.5 mg/kg/injection, schedule: Q01DX009 (ip), vehicle: Klucel (hydroxypropylcellulose) (HPC) 106 % of control | dose: 25.0 mg/kg/injection, schedule: Q01DX009 (ip), vehicle: Klucel (hydroxypropylcellulose) (HPC) 103 % of control and 111 % of control | [13] 103 % of control and 113 % of control | [14] 103 % of control and 107 % of control | [15] 94 % of control

CCCCc1ccc2nc(C)cc(N/N=C/c3ccc(OC)c4ccccc34)c2c1
inactive: dose: 12.5 mg/kg/injection, schedule: Q01DX005 (ip), vehicle: Klucel (hydroxypropylcellulose) (HPC) 100 % of control | [17] 98 % of control | [6] 87 % of control | [10] 100 % of control

OCC(COCCCCCCCCCCCCCC1C=CCC1)OCCCCCCCCCCCCCC1C=CCC1 (stereo not drawn)
inactive: [1] 96 % of control | [2] 89 % of control | [3] 93 % of control

CCNC(=O)/C=C(C)/C=C/C=C(C)/C=C/c1c(C)cc(OC)c(C)c1C
inactive: [17] 86 % of control | [6] 90 % of control | [8] 100 % of control and 101 % of control | [10] 108 % of control
